Assay results as given in patent publication US12653190B2, “Heteroaryl-triazole compounds as pesticides” (Bayer Aktiengesellschaft, priority 2020, dated 2026).

Assays:
Format in all cases: in vivo
[1] = system: larvae of the banded cucumber beetle (Diabrotica balteata); assay: Diabrotica balteata spray test; settings: 168 h, after 7 days, wheat seeds, read-out: efficacy (seedling growth); for pest or weed control at 32 µg/disc, 100 g/ha: 100 g/ha (=32 μg/well); for pest or weed control at 160 µg/disc, 500 g/ha: 500 g/ha (=160 μg/well)
How it was run: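 Efficacy is seedling survival after 7 days, where 0% means no seedlings grew and 100% means growth equal to untreated, uninfested controls. Wheat seedlings, germinated on agar for 1 day, were sprayed with the aqueous emulsifier dilution (acetone/DMF solvent) and then exposed to 10–20 banded cucumber beetle larvae.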

[2] = system: southern root-knot nematode (Meloidogyne incognita); assay: Meloidogyne incognita test; settings: 20 ppm, after 14 days
Protocol: Meloidogyne incognita—Test
• Solvent: 125.0 parts by weight of acetone
To produce a suitable preparation of active compound, 1 part by weight of active compound is mixed with the stated amount of solvent, and the concentrate is diluted with water to the desired concentration. Vessels are filled with sand, a solution of the active ingredient, a suspension containing eggs and larvae of the southern root-knot nematode (Meloidogyne incognita) and salad seeds. The salad seeds germinate and the seedlings grow. Galls develop in the roots.
After 14 days the nematicidal activity is determined on the basis of the percentage of gall formation. 100% means no galls were found and 0% means the number of galls found on the roots of the treated plants was equal to that in untreated control plants.

[3] = system: fall armyworm larvae (Spodoptera frugiperda); assay: Spodoptera frugiperda spray test; settings: in Zea mays, 168 h
How it was run: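 Maize leaf sections were sprayed with compound in acetone/dimethylformamide diluted in water with 1000 ppm emulsifier, dried, then infested with larvae. Mortality in % was scored after 7 days, 100% meaning all caterpillars killed.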

[4] = system: Rhipicephalus (Boophilus) microplus larvae (strain Parkhurst, resistant against synthetic pyrethroids); assay: Rhipicephalus (Boophilus) microplus in-vitro contact test, larval cattle tick; settings: 5 μg/cm^2 (=500 g/ha), after 48 hours, read-out: efficacy (larvae dead or moribund)
Protocol: Rhipicephalus (Boophilus) microplus—In-Vitro Contact Tests Larval Cattle Tick (Strain Parkhurst, Resistant Against Synthetic Pyrethroids)
(§1) 9 mg compound is solved in 1 mL acetone and diluted with acetone to the desired concentration. 250 μL of the test solution is filled in 25 mL glass test tubes and homogeneously distributed on the inner walls by rotation and tilting on a shaking device (2 h at 30 rpm). With a compound concentration of 900 ppm, an inner surface of 44.7 cm^2 and a homogeneous distribution, a dose of 5 μg/cm^2 is achieved.
After the solvent has evaporated, each test tube is filled with 20-50 cattle tick larvae (Rhipicephalus microplus), closed with a perforated lid and incubated in a horizontal position at 85% relative humidity and 27° C. in an incubator. After 48 hours efficacy is determined. The larvae are patted on the ground of the tubes and negative geotactic behavior is recorded.
An efficacy of 100% means all larvae are dead or moribund; 0% means no larvae are dead or moribund.

[5] = system: green peach aphid (Myzus persicae); assay: Myzus persicae oral test; settings: 120 h, after 5 days
Protocol: • Solvent: 100 parts by weight acetone
To produce a suitable preparation of active compound, 1 part by weight of active compound is mixed with the stated amount of solvent, and the concentrate is diluted with water to the desired concentration.
50 μL compound solution is filled in microtiter plates and 150 μL IPL41 insect medium (33%+15% sugar) is added to obtain a total volume of 200 μL per well. Afterwards the plates are sealed with parafilm through which a mixed population of the green peach aphid (Myzus persicae) can suck on the compound preparation.
(§2) After 5 days mortality in % is determined. 100% means all aphids have been killed and 0% means none of the aphids have been killed.

[6] = system: green peach aphid (Myzus persicae); assay: Myzus persicae spray test; settings: foliar, 120 h, after 5 days, Chinese cabbage leaf disks
Protocol: Myzus persicae—Spray Test
• Solvent: 78.0 parts by weight acetone • 1.5 parts by weight dimethylformamide • Emulsifier: alkylarylpolyglycol ether
To produce a suitable preparation of active compound, 1 part by weight of active compound is mixed with the stated amount of solvents and is diluted with water, containing an emulsifier concentration of 1000 ppm, to the desired concentration. Further test concentrations are prepared by dilution with emulsifier containing water.
Chinese cabbage (Brassica pekinensis) leaf disks infected with all instars of the green peach aphid (Myzus persicae), are sprayed with a preparation of the active ingredient of the desired concentration.
as §2

[7] = system: larvae of the southern green stink bug (Nezara viridula); assay: Nezara viridula spray test; settings: 96 h, after 4 days, barley plants
How it was run: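 Percent mortality of southern green stink bug larvae was recorded at day 4, with 100% meaning all dead. The larvae were placed on barley sprayed with the test solution. That solution was prepared from acetone/dimethylformamide concentrate diluted in emulsifier-containing water (1000 ppm).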

[8] = system: adult mosquitoes Aedes aegypti strain MONHEIM; assay: Aedes aegypti test (AEDSAE surface treatment & contact assay); settings: 24 hours after contact, read-out: efficacy (mortality); for mortality at 4 mg/m2: surface concentration 4 mg/m^2, 30 minutes exposure; for mortality at 20 mg/m2: surface concentration 20 mg/m^2, 30 minutes exposure
Protocol: Aedes aegypti Test (AEDSAE Surface Treatment & Contact Assay)
(§3) • Solvent: Aceton+2000 ppm rapeseed oil methyl ester (RME)
(§4) In order to produce a sufficient, active ingredient containing solution it is necessary to solve the test compound in the solvent-mix (acetone at 2 mg/ml/RME 2000 ppm). This solution is pipetted onto a glazed tile and after evaporation of the acetone, adult mosquitoes of the species Aedes aegypti strain MONHEIM are placed onto the dried surface. The exposure time is 30 minutes.
(§5) Mortality in percent (%) is determined 24 hours after contact of the insects to the treated surface. 100% mortality means that all tested insects are dead, whereas 0% means that no insect died.

[9] = system: adult cat fleas (Ctenocephalides felis); assay: Ctenocephalides felis in-vitro contact test, adult cat flea; settings: 5 μg/cm^2 (=500 g/ha), after 48 hours, read-out: efficacy (fleas dead or moribund)
Protocol: Ctenocephalides felis—In-Vitro Contact Tests Adult Cat Flea
as §1
(§6) After the solvent has evaporated, each test tube is filled with 5-10 adult cat fleas (Ctenocephalides felis), closed with a perforated lid and incubated in a lying position at room temperature and relative humidity. After 48 hours efficacy is determined. The fleas are patted on the ground of the tubes and are incubated on a heating plate at 45-50° C. for at most 5 minutes Immotile or uncoordinated moving fleas, which are not able to escape the heat by climbing upwards, are marked as dead or moribund.
An efficacy of 100% means all fleas are dead or moribund; 0% means no fleas are dead or moribund.

[10] = system: adult brown dog ticks (Rhipicephalus sanguineus); assay: Rhipicephalus sanguineus in-vitro contact test, adult brown dog ticks; settings: 5 μg/cm^2 (=500 g/ha), after 48 hours, read-out: efficacy (ticks dead or moribund)
Protocol: Rhipicephalus sanguineus—In-Vitro Contact Tests with Adult Brown Dog Ticks
as §1
as §6, with “brown dog ticks (Rhipicephalus sanguineus),” for “cat fleas (Ctenocephalides felis),”, “ticks” for “fleas”, “ticks,” for “fleas,”
An efficacy of 100% means all ticks are dead or moribund; 0% means no ticks are dead or moribund.

[11] = system: adult mosquitoes Culex quinquefasciatus strain P00; assay: Culex quinquefasciatus test (CULXFA surface treatment & contact assay); settings: 24 hours after contact, read-out: efficacy (mortality); for mortality at 20 mg/m2: surface concentration 20 mg/m^2, 30 minutes exposure; for mortality at 4 mg/m2: surface concentration 4 mg/m^2, 30 minutes exposure
Protocol: Culex quinquefasciatus Test (CULXFA Surface Treatment & Contact Assay)
as §3
as §4, with “2 000” for “2000”, “Culex Quinquefasciatus” for “Aedes aegypti”, “P00” for “MONHEIM”, “minutes. Mortality in percent (%) is determined 24 hours after contact of the insects to the treated surface. 100% mortality means that all tested insects are dead, whereas 0% means that no insect died.” for “minutes.”

[12] = system: adult flies Musca domestica strain WHO-N; assay: Musca domestica test (MUSCDO surface treatment & contact assay); settings: 24 hours after contact, read-out: efficacy (mortality); for mortality at 4 mg/m2: surface concentration 4 mg/m^2, 30 minutes exposure; for mortality at 20 mg/m2: surface concentration 20 mg/m^2, 30 minutes exposure
Protocol: Musca domestica Test (MUSCDO Surface Treatment & Contact Assay)
as §3
as §4, with “flies” for “mosquitoes”, “Musca domestica” for “Aedes aegypti”, “WHO-N” for “MONHEIM”
as §5

C[C@H](NC(=O)c1cc(OCC(Cl)=C(Cl)Cl)cc(C(F)(F)F)c1)c1ncnn1-c1ccc(C#N)cn1 [Example I-24]
100%: pest or weed control at 32 µg/disc, 100 g/ha [1] | pest or weed control at 160 µg/disc, 500 g/ha [1] | mortality at 100 g/ha [3] | mortality at 500 g/ha [3]
90%: nematicidal activity (gall formation) [2]

C[C@H](NC(=O)c1cc(OC[S+](C)[O-])cc(C(F)(F)F)c1)c1ncnn1-c1ccc(C#N)cn1 (stereo partly drawn) [Example I-27, N-{(1S)-1-[1-(5-Cyanopyridin-2-yl)-1H-1,2,4-triazol-5-yl]ethyl}-3-[(methylsulfinyl)methoxy]-5-(trifluoromethyl)benzamide]
80 to 100%: mortality at 4 mg/m2 [8] | mortality at 20 mg/m2 [8]
100%: pest or weed control at 5 µg/cm2, 5 µg/cm2 [4] | pest or weed control at 32 µg/disc, 100 g/ha [1] | pest or weed control at 160 µg/disc, 500 g/ha [1] | mortality at 4 ppm [5] | mortality at 20 ppm ([5]; 20 ppm) | mortality at 100 g/ha [7] | mortality at 500 g/ha [7] | mortality at 100 g/ha [3] | mortality at 500 g/ha [3]
90%: mortality at 100 g/ha [6]

C[C@H](NC(=O)c1cc(OCC2CC2(Cl)Cl)cc(C(F)(F)F)c1)c1ncnn1-c1ccc(C#N)cn1 (stereo partly shown) [Example I-29]
100%: pest or weed control at 32 µg/disc, 100 g/ha [1]
90%: mortality at 4 ppm [5]

C[C@H](NC(=O)c1cc(OCC2CC2(Cl)Cl)cc(C(F)(F)F)c1)c1ncnn1-c1ncc(C#N)s1 (stereo partly shown) [Example I-30]
80%: pest or weed control at 5 µg/cm2, 5 µg/cm2 [9]
90%: mortality at 4 ppm [5]
100%: pest or weed control at 32 µg/disc, 100 g/ha [1]

C[C@H](NC(=O)c1cc(Cl)cc(C(C)(C)C#N)c1)c1ncnn1-c1ccc(C#N)cn1 [Example I-33, 3-Chloro-5-(2-cyanopropan-2-yl)-N-{(1S)-1-[1-(5-cyanopyridin-2-yl)-1H-1,2,4-triazol-5-yl]ethyl}benzamide]
80%: pest or weed control at 5 µg/cm2, 5 µg/cm2 [9]
80 to 100%: mortality at 4 mg/m2 [8] | mortality at 20 mg/m2 [8] | mortality at 20 mg/m2 [11] | mortality at 4 mg/m2 [12] | mortality at 20 mg/m2 [12]
100%: pest or weed control at 5 µg/cm2, 5 µg/cm2 [4] | pest or weed control at 5 µg/cm2, 5 µg/cm2 [10] | pest or weed control at 32 µg/disc, 100 g/ha [1] | mortality at 4 ppm [5] | mortality at 100 g/ha [3]

C[C@H](NC(=O)c1cc(OCC(Cl)=C(Cl)Cl)cc(C(F)(F)F)c1)c1ncnn1-c1ncc([N+](=O)[O-])s1 [Example I-34]
90%: mortality at 4 ppm [5]

C[C@H](NC(=O)c1cc(Cl)cc(C(=O)C2CC2)c1)c1ncnn1-c1ccc(C#N)cn1 [Example I-35]
80%: pest or weed control at 5 µg/cm2, 5 µg/cm2 [10]
100%: pest or weed control at 5 µg/cm2, 5 µg/cm2 [4] | pest or weed control at 5 µg/cm2, 5 µg/cm2 [9] | pest or weed control at 32 µg/disc, 100 g/ha [1] | mortality at 4 ppm [5] | mortality at 100 g/ha [7] | mortality at 100 g/ha [3]
80 to 100%: mortality at 4 mg/m2 [8] | mortality at 20 mg/m2 [8] | mortality at 20 mg/m2 [11] | mortality at 4 mg/m2 [12] | mortality at 20 mg/m2 [12]

COc1nc([C@H](C)NC(=O)c2cc(Cl)cc(C(C)(C)C#N)c2)n(-c2ccc(C#N)cn2)n1 [Example I-39]
100%: pest or weed control at 32 µg/disc, 100 g/ha [1] | nematicidal activity (gall formation) [2] | mortality at 100 g/ha [3]

C[C@H](NC(=O)c1cc(C(F)(F)F)cc(C(C)(C)C#N)c1)c1ncnn1-c1ccc(C#N)cn1 [Example I-42]
100%: pest or weed control at 5 µg/cm2, 5 µg/cm2 [4] | pest or weed control at 32 µg/disc, 100 g/ha [1] | mortality at 100 g/ha [6] | mortality at 100 g/ha [7] | mortality at 500 g/ha [7] | mortality at 100 g/ha [3]
80%: pest or weed control at 5 µg/cm2, 5 µg/cm2 [9] | pest or weed control at 5 µg/cm2, 5 µg/cm2 [10]
80 to 100%: mortality at 4 mg/m2 [8] | mortality at 20 mg/m2 [8] | mortality at 4 mg/m2 [11] | mortality at 20 mg/m2 [11] | mortality at 4 mg/m2 [12] | mortality at 20 mg/m2 [12]

C[C@H](NC(=O)c1cc(C(F)(F)F)cc(C(C)(C)C#N)c1)c1ncnn1-c1ncc(C#N)s1 [Example I-44, 3-(1-Cyano-1-methyl-ethyl)-N-[(1S)-1-[2-(5-cyanothiazol-2-yl)-1,2,4-triazol-3-yl]ethyl]-5-(trifluoromethyl)benzamide]
100%: pest or weed control at 5 µg/cm2, 5 µg/cm2 [4] | pest or weed control at 5 µg/cm2, 5 µg/cm2 [9] | mortality at 100 g/ha [6] | mortality at 100 g/ha [7] | mortality at 500 g/ha [7] | mortality at 100 g/ha [3]
80 to 100%: mortality at 4 mg/m2 [8] | mortality at 20 mg/m2 [8] | mortality at 4 mg/m2 [11] | mortality at 20 mg/m2 [11] | mortality at 4 mg/m2 [12] | mortality at 20 mg/m2 [12]
80%: pest or weed control at 5 µg/cm2, 5 µg/cm2 [10]

C[C@H](NC(=O)c1cc(Cl)cc(OC(C)(C)C#N)c1)c1ncnn1-c1ncc(C#N)s1 [Example I-61]
90%: nematicidal activity (gall formation) [2]
100%: pest or weed control at 32 µg/disc, 100 g/ha [1] | mortality at 100 g/ha [3]
